Data as given in patent publication US20250114374A1, “BCL-2 INHIBITORS” (Newave Pharmaceutical Inc., priority 2021, published 2025).
Where two headings read alike, the source gives them in different places. One block for each compound: values may come before it.

Experiments:
CLL = details: read-out: average EC50, apoptosis; cited from earlier work
[1] = test system: RS4; 11 with G101V mutation; experiment: In vitro anti-proliferation assay (ATPlite luminescence) in BCL-2-dependent ALL cell line RS4;11 with G101V mutation; assay type: cell-based; details: read-out: RS411-G101V IC50
Method in brief: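 RS4;11 G101V cells at about 1×10^4 per well were exposed to a range of compound concentrations for about 72 h in medium with 10% FBS. Cellular ATP was measured by ATPlite luminescence after lysis, and IC50 was derived from the dose-response.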

[2] = test system: CLL who have 17p deletion; details: Human Phase I and II, CLL with 17p deletion; cited from earlier work
RS4; 11 cells = details: cited from earlier work
Mcl-1 = Mcl-1 (Homo sapiens, UniProt Q07820); details: cited from earlier work
[3] = test system: DoHH2, Granta-519 xenografts; details: single agent or in combination with Bendamustine and other agents; cited from earlier work
RS4; 11 xenografts = details: single dose of 100 mg/kg; cited from earlier work
circulating platelets = details: cited from earlier work
[4] = test system: xenograft models of small-cell lung cancer and acute lymphoblastic leukemia; details: oral administration, alone; cited from earlier work
Bcl-w = molecular target: T1, Bcl-w (Homo sapiens, UniProt Q92843); details: cited from earlier work
T1 sequence (Q92843 1-193): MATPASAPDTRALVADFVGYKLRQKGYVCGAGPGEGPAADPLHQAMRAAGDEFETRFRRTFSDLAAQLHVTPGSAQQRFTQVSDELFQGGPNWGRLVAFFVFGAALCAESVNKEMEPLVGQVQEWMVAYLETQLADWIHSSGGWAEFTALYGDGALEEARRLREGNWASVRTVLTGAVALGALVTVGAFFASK

[5] = cellular anti-proliferative IC50, about 72 hours, medium with 10% FBS, ATPlite

Mcl-1, sequence (Q07820 whole entry): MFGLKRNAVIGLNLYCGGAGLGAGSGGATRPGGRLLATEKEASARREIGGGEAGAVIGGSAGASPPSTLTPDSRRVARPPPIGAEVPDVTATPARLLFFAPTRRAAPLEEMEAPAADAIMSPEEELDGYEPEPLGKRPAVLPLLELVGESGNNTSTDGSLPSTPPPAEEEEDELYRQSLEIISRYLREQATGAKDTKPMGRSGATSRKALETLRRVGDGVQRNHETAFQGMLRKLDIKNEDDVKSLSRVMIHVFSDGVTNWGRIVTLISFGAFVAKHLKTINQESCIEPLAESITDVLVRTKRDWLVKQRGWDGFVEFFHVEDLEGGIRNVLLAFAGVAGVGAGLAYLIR

IC50 ([1]; Homo sapiens, RS4-11, 72 h): 783 nM
SMILES: CC1(C)CCC(CN2CCN(c3ccc(C(=O)NS(=O)(=O)c4ccc(NCC5CCOCC5)c([N+](=O)[O-])c4)c(Oc4cnc5[nH]ccc5c4)c3)CC2)=C(c2ccc(Cl)cc2)C1 [ABT-199]
EC50 (CLL): 3 nM
clinical efficacy [2]: highly efficacious
EC50 (RS4; 11 cells; RS4, 11 cells): 8 nM
apoptosis in RS4; 11 cells (RS4; 11 cells; cytochrome c release, caspase activation, accumulation of sub-G0/G1 DNA): rapid apoptosis
activity to Mcl-1 (Mcl-1): no activity
xenograft growth [3]: inhibits xenograft growth
maximal tumor growth inhibition (RS4; 11 xenografts): 95%
tumor growth delay (RS4; 11 xenografts): 152%

SMILES: CC1(C)CCC(c2ccc(Cl)cc2)=C(CN2CCN(c3ccc(C(=O)NS(=O)(=O)c4ccc(N[C@H](CCN5CCOCC5)CSc5ccccc5)c(S(=O)(=O)C(F)(F)F)c4)cc3)CC2)C1 [ABT-263]
number of circulating platelets (circulating platelets; clinical trial): rapid, concentration-dependent decrease
dose-limiting toxicity (circulating platelets; single-agent treatment in patients): thrombocytopenia
tumor regression [4]: complete tumor regressions
Ki (Bcl-w): ≤ 1 nM

IC50 ([1]; Homo sapiens, RS4-11, 72 h): 10.2 nM
SMILES: CC(C)Oc1ccccc1[C@@H]1CN(Cc2cccnc2)CCN1C1CC2(CCN(c3ccc(C(=O)NS(=O)(=O)c4cc5c(c([N+](=O)[O-])c4)N[C@H](C4CCOCC4)CO5)c(N4c5cc6cc[nH]c6nc5O[C@H]5COCC[C@@H]54)c3)CC2)C1 [Example 253, 4-(2-((R)-2-(2-isopropoxyphenyl)-4-(pyridin-3-ylmethyl)piperazin-1-yl)-7-azaspiro[3.5]nonan-7-yl)-N-(((R)-5-nitro-3-(tetrahydro-2H-pyran-4-yl)-3,4-dihydro-2H-benzo[b][1,4]oxazin-7-yl)sulfonyl)-2-((5aS,9aR)-6,7,9,9a-tetrahydro-1H-pyrano[3,4-b]pyrrolo[3′,2′:5,6]pyrido[3,2-e][1,4]oxazin-5(5aH)-yl)benzamide]

IC50 ([1]; Homo sapiens, RS4-11, 72 h): 3.19 nM
SMILES: Cc1ccc(CN2CCN(C3CC4(CCN(c5ccc(C(=O)NS(=O)(=O)c6cc7c(c([N+](=O)[O-])c6)N[C@H](C6CCOCC6)CO7)c(N6c7cc8cc[nH]c8nc7O[C@H]7COCC[C@@H]76)c5)CC4)C3)[C@H](c3ccccc3OC(C)C)C2)cn1 [Example 254, 4-(2-((R)-2-(2-isopropoxyphenyl)-4-((6-methylpyridin-3-yl)methyl)piperazin-1-yl)-7-azaspiro[3.5]nonan-7-yl)-N-(((R)-5-nitro-3-(tetrahydro-2H-pyran-4-yl)-3,4-dihydro-2H-benzo[b][1,4]oxazin-7-yl)sulfonyl)-2-((5aS,9aR)-6,7,9,9a-tetrahydro-1H-pyrano[3,4-b]pyrrolo[3′,2′:5,6]pyrido[3,2-e][1,4]oxazin-5(5aH)-yl)benzamide]

SMILES: CC(C)Oc1ccccc1[C@@H]1CN(Cc2ccc(C(C)C)nc2)CCN1C1CC2(CCN(c3ccc(C(=O)NS(=O)(=O)c4cc5c(c([N+](=O)[O-])c4)N[C@H](C4CCOCC4)CO5)c(N4c5cc6cc[nH]c6nc5O[C@H]5COCC[C@@H]54)c3)CC2)C1 [Example 255, 2-[(3R,8S)-2,5-dioxa-9,15,17-triazatetracyclo[8.7.0.0^{3,8}.0^{12,16}]heptadeca-1(10),11,13,16-tetraen-9-yl]-4-{2-[(2R)-2-(2-isopropoxyphenyl)-4-[(6-isopropylpyridin-3-yl)methyl]piperazin-1-yl]-7-azaspiro[3.5]nonan-7-yl}-N-[(3R)-5-nitro-3-(oxan-4-yl)-3,4-dihydro-2H-1,4-benzoxazin-7-ylsulfonyl]benzamide]
IC50 [1, 5]: 6.39 nM

IC50 ([1]; Homo sapiens, RS4-11, 72 h): 11.8 nM
SMILES: CC(C)Oc1ccccc1[C@@H]1CN(Cc2ccc(C(C)(C)C)nc2)CCN1C1CC2(CCN(c3ccc(C(=O)NS(=O)(=O)c4cc5c(c([N+](=O)[O-])c4)N[C@H](C4CCOCC4)CO5)c(N4c5cc6cc[nH]c6nc5O[C@H]5COCC[C@@H]54)c3)CC2)C1 [Example 256, 4-(2-((R)-4-((6-(tert-butyl)pyridin-3-yl)methyl)-2-(2-isopropoxyphenyl)piperazin-1-yl)-7-azaspiro[3.5]nonan-7-yl)-N-(((R)-5-nitro-3-(tetrahydro-2H-pyran-4-yl)-3,4-dihydro-2H-benzo[b][1,4]oxazin-7-yl)sulfonyl)-2-((5aS,9aR)-6,7,9,9a-tetrahydro-1H-pyrano[3,4-b]pyrrolo[3′,2′:5,6]pyrido[3,2-e][1,4]oxazin-5(5aH)-yl)benzamide]

IC50 ([1]; Homo sapiens, RS4-11, 72 h): 3.9 nM
SMILES: CC(C)Oc1ccccc1[C@@H]1CN(Cc2ccc(C3CC3)nc2)CCN1C1CC2(CCN(c3ccc(C(=O)NS(=O)(=O)c4cc5c(c([N+](=O)[O-])c4)N[C@H](C4CCOCC4)CO5)c(N4c5cc6cc[nH]c6nc5O[C@H]5COCC[C@@H]54)c3)CC2)C1 [Example 257, 4-(2-((R)-4-((6-cyclopropylpyridin-3-yl)methyl)-2-(2-isopropoxyphenyl)piperazin-1-yl)-7-azaspiro[3.5]nonan-7-yl)-N-(((R)-5-nitro-3-(tetrahydro-2H-pyran-4-yl)-3,4-dihydro-2H-benzo[b][1,4]oxazin-7-yl)sulfonyl)-2-((5aS,9aR)-6,7,9,9a-tetrahydro-1H-pyrano[3,4-b]pyrrolo[3′,2′:5,6]pyrido[3,2-e][1,4]oxazin-5(5aH)-yl)benzamide]

IC50 ([1]; Homo sapiens, RS4-11, 72 h): 11.7 nM
SMILES: COc1ccc(CN2CCN(C3CC4(CCN(c5ccc(C(=O)NS(=O)(=O)c6cc7c(c([N+](=O)[O-])c6)N[C@H](C6CCOCC6)CO7)c(N6c7cc8cc[nH]c8nc7O[C@H]7COCC[C@@H]76)c5)CC4)C3)[C@H](c3ccccc3OC(C)C)C2)cn1 [Example 258, 4-(2-((R)-2-(2-isopropoxyphenyl)-4-((6-methoxypyridin-3-yl)methyl)piperazin-1-yl)-7-azaspiro[3.5]nonan-7-yl)-N-(((R)-5-nitro-3-(tetrahydro-2H-pyran-4-yl)-3,4-dihydro-2H-benzo[b][1,4]oxazin-7-yl)sulfonyl)-2-((5aS,9aR)-6,7,9,9a-tetrahydro-1H-pyrano[3,4-b]pyrrolo[3′,2′:5,6]pyrido[3,2-e][1,4]oxazin-5(5aH)-yl)benzamide]

SMILES: CNc1ccc(CN2CCN(C3CC4(CCN(c5ccc(C(=O)NS(=O)(=O)c6cc7c(c([N+](=O)[O-])c6)N[C@H](C6CCOCC6)CO7)c(N6c7cc8cc[nH]c8nc7O[C@H]7COCC[C@@H]76)c5)CC4)C3)[C@H](c3ccccc3OC(C)C)C2)cn1 [Example 259, 2-[(3R,8S)-2,5-dioxa-9,15,17-triazatetracyclo[8.7.0.0^{3,8}.0^{12,16}]heptadeca-1(10),11,13,16-tetraen-9-yl]-4-{2-[(2R)-2-(2-isopropoxyphenyl)-4-{[6-(methylamino)pyridin-3-yl]methyl}piperazin-1-yl]-7-azaspiro[3.5]nonan-7-yl}-N-[(3R)-5-nitro-3-(oxan-4-yl)-3,4-dihydro-2H-1,4-benzoxazin-7-ylsulfonyl]benzamide]
IC50 [1, 5]: 9.72 nM

SMILES: CC(C)Oc1ccccc1[C@@H]1CN(Cc2ccc(N3CCOC[C@@H]3C)nc2)CCN1C1CC2(CCN(c3ccc(C(=O)NS(=O)(=O)c4cc5c(c([N+](=O)[O-])c4)N[C@H](C4CCOCC4)CO5)c(N4c5cc6cc[nH]c6nc5O[C@H]5COCC[C@@H]54)c3)CC2)C1 [Example 260, 2-[(3R,8S)-2,5-dioxa-9,15,17-triazatetracyclo[8.7.0.0^{3,8}.0^{12,16}]heptadeca-1(10),11,13,16-tetraen-9-yl]-4-{2-[(2R)-2-(2-isopropoxyphenyl)-4-({6-[(3S)-3-methylmorpholin-4-yl]pyridin-3-yl}methyl)piperazin-1-yl]-7-azaspiro[3.5]nonan-7-yl}-N-[(3R)-5-nitro-3-(oxan-4-yl)-3,4-dihydro-2H-1,4-benzoxazin-7-ylsulfonyl]benzamide]
IC50 [1, 5]: 8.65 nM

SMILES: CC(C)Oc1ccccc1[C@@H]1CN(Cc2ccc(C(F)(F)F)nc2)CCN1C1CC2(CCN(c3ccc(C(=O)NS(=O)(=O)c4cc5c(c([N+](=O)[O-])c4)N[C@H](C4CCOCC4)CO5)c(N4c5cc6cc[nH]c6nc5O[C@H]5COCC[C@@H]54)c3)CC2)C1 [Example 261, 2-[(3R,8S)-2,5-dioxa-9,15,17-triazatetracyclo[8.7.0.0^{3,8}.0^{12,16}]heptadeca-1(10),11,13,16-tetraen-9-yl]-4-{2-[(2R)-2-(2-isopropoxyphenyl)-4-{[6-(trifluoromethyl)pyridin-3-yl]methyl}piperazin-1-yl]-7-azaspiro[3.5]nonan-7-yl}-N-[(3R)-5-nitro-3-(oxan-4-yl)-3,4-dihydro-2H-1,4-benzoxazin-7-ylsulfonyl]benzamide]
IC50 [1, 5]: 3.87 nM

SMILES: CC(C)Oc1ccccc1[C@@H]1CN(Cc2ccc(C#N)nc2)CCN1C1CC2(CCN(c3ccc(C(=O)NS(=O)(=O)c4cc5c(c([N+](=O)[O-])c4)N[C@H](C4CCOCC4)CO5)c(N4c5cc6cc[nH]c6nc5O[C@H]5COCC[C@@H]54)c3)CC2)C1 [Example 262, 4-{2-[(2R)-4-[(6-cyanopyridin-3-yl)methyl]-2-(2-isopropoxyphenyl)piperazin-1-yl]-7-azaspiro[3.5]nonan-7-yl}-2-[(3R,8S)-2,5-dioxa-9,15,17-triazatetracyclo[8.7.0.0^{3,8}.0^{12,16}]heptadeca-1(10),11,13,16-tetraen-9-yl]-N-[(3R)-5-nitro-3-(oxan-4-yl)-3,4-dihydro-2H-1,4-benzoxazin-7-ylsulfonyl]benzamide]
IC50 [1, 5]: 6.43 nM
